What all share (type): cell-based
For experiment [1], the system named is Wnt activity (Sp5-Luc reporter, human Sp5 promoter with eight TCF/LEF binding sites) in SW480 colon carcinoma cells. Briefly: Screening assay for Wnt activity: Sp5-Luc reporter gene assay in SW480 cells. The note with it: 10-point dose-response starting from 10 μM, overnight incubation. The source says: The screening assay for Wnt activity is described as follows. Reporter cell lines can be generated by stably transducing cancer cell lines (e.g., colon cancer) or primary cells (e.g., IEC-6 intestinal cells) with a lentiviral construct that includes a Wnt-responsive promoter driving expression of the firefly luciferase gene.
SW480 colon carcinoma cells were transduced with a lentiviral vector expressing luciferase with a human Sp5 promoter consisting of a sequence of eight TCF/LEF binding sites. SW480 cells stably expressing the Sp5-Luc reporter gene and a hygromycin resistance gene were selected by treatment with 150 μg/mL of hygromycin for 7 days. These stably transduced SW480 cells were expanded in cell culture and used for all further screening activities. Each compound was dissolved in DMSO as a 10 mM stock and used to prepare compound source plates. Serial dilution (1:3, 10-point dose-response curves starting from 10 μM) and compound transfer was performed using the ECHO 550 (Labcyte, Sunnyvale, Calif.) into 384-well white solid bottom assay plates (Greiner Bio-One) with appropriate DMSO backfill for a final DMSO concentration of 0.1%. For Sp5-Luc reporter gene assays, the cells were plated at 4,000 cells/well in 384-well plates with medium containing 1% fetal bovine serum and incubated overnight at 37° C. and 5% CO2. Following incubation, 20 μl of BrightGlo luminescence reagent (Promega) was added to each well of the 384-well assay plates. The plates were placed on an orbital shaker for 2 min and then luminescence was quantified using the Envision (Perkin Elmer) plate reader. Readings were normalized to DMSO only treated cells, and normalized activities were utilized for EC50 calculations using the dose-response log (inhibitor) vs. response -variable slope (four parameters) nonlinear regression feature available in GraphPad Prism 5.0 (or Dotmatics). For EC50 of >10 μM, the percent inhibition at 10 μM is provided.
A general note: A reporter such as luciferase makes a cellular process visible.

Another experiment has as its system SW480 colon cancer cells. Briefly: Cell viability assay (CellTiter-Blue) in SW480 colon cancer cells. The conditions noted are these: Homo sapiens, 96 h, four days incubation, CellTiter-Blue cell viability. The method, then:
Representative compounds were screened using the following assay procedure to assess the effect on cell viability as described below.
Each compound was dissolved in DMSO as a 10 mM stock and used to prepare compound source plates. Serial dilution (1:3, 8-point dose-response curves from 10 μM to 0.004 μM) and compound transfer was performed using the ECHO 550 (Labcyte, Sunnyvale, Calif.) into 96-well clear bottom, black-walled plates (Corning-Costar).
Approximately 2×10^3 SW480 colon cancer cells were seeded into each well and allowed to incubate in the presence or absence of compound for four days at 37° C./5% CO2. Eight replicates of DMSO-treated cells served as controls and cells treated with compound were performed in duplicate.
After incubation, 20 μL of CellTiter-Blue (Promega) was added to each well allowed to incubate for approximately 3 hours. This reagent was a buffered solution which contains resazurin, metabolically active cells were able to reduce rezarurin (blue) into resorufin (pink) which was highly fluorescent. This measured fluorescence was used as a readout for cell viability.
After incubation, the plates were read at Ex 560 nm Em 590 nm (Cytation 3, BioTek). Dose-response curves were generated and EC50 concentration values were calculated using non-linear regression curve fit in the GraphPad Prism (San Diego, Calif.) or Dotmatics' Studies Software (Bishops Stortford, UK). For EC50 of >10 μM, the percent inhibition at 10 μM is provided.

The test system of experiment [2] is LL29 cells (primary human fibroblasts derived from IPF patients) treated with TGF-β1, α-smooth muscle actin. Briefly: Inhibition of the fibrotic process: αSMA staining in TGF-β1 treated primary human fibroblasts from IPF patients (LL29 cells). The note with it: Fibroblast, 96 h, LL29 cells treated with TGF-β1 (20 ng/mL), 4 days. The source says: Representative compounds were screened using primary human fibroblasts (derived from IPF patients) treated with TGF-β1 to determine their ability to inhibit the fibrotic process.
Human Fibroblast Cell Culture: Primary human fibroblasts derived from IPF patients (LL29 cells) [^1Xiaoqiu Liu, et.al., “Fibrotic Lung Fibroblasts Show Blunted Inhibition by cAMP Due to Deficient cAMP Response Element-Binding Protein Phosphorylation”, Journal of Pharmacology and Experimental Therapeutics (2005), 315(2), 678-687; ^2Watts, K. L., et.al., “RhoA signaling modulates cyclin D1 expression in human lung fibroblasts; implications for idiopathic pulmonary fibrosis”, Respiratory Research (2006), 7(1), 88] were obtained from American Type Culture Collection (ATCC) and expanded in F12 medium supplemented with 15% Fetal Bovine Serum and Penicillin/Streptomycin.
Compound Screening: Each compound was dissolved in DMSO as a 10 mM stock and used to prepare compound source plates. […] LL29 cells are plated at 1,500 cells/well in 80 μL/well F12 medium supplemented with 1% Fetal Bovine Serum. One hour after addition of the cells, TGF-β1 (Peprotech; 20 ng/mL) was added to the plates to induce fibrosis (ref. 1 and 2 above). Wells treated with TGF-β1 and containing DMSO were used as controls. Cells were incubated at 37° C. and 5% CO2 for 4 days. Following incubation for 4 days, SYTOX green nucleic acid stain (Life Technologies [Thermo Fisher Scientific]) was added to the wells at a final concentration of 1 μM and incubated at room temperature for 30 min. Cells were then fixed using 4% formaldehyde (Electron Microscopy Sciences), washed 3 times with PBS followed by blocking and permeabilization using 3% Bovine Serum Albumin (BSA; Sigma) and 0.3% Triton X-100 (Sigma) in PBS. Cells were then stained with antibody specific to α-smooth muscle actin (αSMA; Abcam) (ref. 1 and 2 above) in 3% Bovine Serum Albumin (BSA; Sigma) and 0.3% Triton X-100 (Sigma) in PBS, and incubated overnight at 4° C. Cells were then washed 3 times with PBS, followed by incubation with Alexa Flor-647 conjugated secondary antibody (Life Technologies [Thermo Fisher Scientific]) and DAPI at room temperature for 1 hour. Cells were then washed 3 times with PBS and plates were sealed for imaging. αSMA staining was imaged by excitation at 630 nm and emission at 665 nm and quantified using the Compartmental Analysis program on the CellInsight CX5 (Thermo Scientific). Dead or apoptotic cells were excluded from analysis based on positive SYTOX green staining. % of total cells positive for αSMA were counted in each well and normalized to the average of 11 wells treated with TGF-β1 on the same plate using Dotmatics' Studies Software. The normalized averages (fold change over untreated) of 3 replicate wells for each compound concentration were used to create dose-responses curves and EC50 values were calculated using non-linear regression curve fit in the Dotmatics' Studies Software. For EC50 of >10 μM, the percent inhibition at 10 μM is provided.

In a further experiment the test system is IL-6 in THP-1 cells. Briefly: Inhibition of IL-6 in LPS-stimulated THP-1 human monocyte cells (HTRF). The conditions noted are these: IL-6 HTRF. The protocol:
Human Monocyte Cell Culture: Human monocyte cell line (THP-1 cells; Catalog # TIB-202, ATCC, Manassas, Va.) were cultured in Roswell Park Memorial Institute (RPMI) 1640 Medium (Catalog #21870-100, Buffalo, N.Y.) with 1% L-glutamine, 1% HEPES, 1% Sodium Pyruvate, 2% Sodium Bicarbonate supplemented with 100 units/mL penicillin, 50 μg/mL streptomycin, 2-mercaptoethanol (0.05 mM) [basal medium] and 10% fetal bovine serum (Catalog #16140089, Life Technologies, Carlsbad, Calif.) at 37° C. and 5% CO2.
Compound Screening: THP-1 cells were cultured in basal media with 1% FBS for 24 hours before the start of the assay. Each compound was dissolved in DMSO as a 10 mM stock and used to prepare compound source plates. Serial dilution (1:3, 10-point dose-response curves starting from 10 μM) and compound transfer was performed using the ECHO 550 (Labcyte, Sunnyvale, Calif.) into 384-well white low volume assay plates (Greiner Bio-One) with appropriate DMSO backfill for a final DMSO concentration of 0.1%. THP-1 cells were plated at 5000 cells/well in the 384-well plates and incubated at 37° C. for 2 h. 500 ng/mL of LPS was added after 2 hours and cells were incubated for another 22 hours at 37° C. Plates were spun in a centrifuge for 1 minute at […] and a mixture of anti-IL6 XL665, and anti-IL6 Cryptate diluted in reconstitution buffer (Cisbio Inc.) was added to each well. Following incubation for 3 hrs at room temperature, Homogeneous Time-Resolved Fluorescence (HTRF) was measured using the Envision (Perkin Elmer) at 665 nm and […]. The ratio of fluorescence at 665 nm to 620 nm was used as a readout for IL6 quantification. All samples were processed in duplicate. Readings were normalized to DMSO treated cells and normalized activities were utilized for EC50 calculations using the dose-response log (inhibitor) vs. response -variable slope (four parameters) nonlinear regression feature available in GraphPad Prism 5.0 (or Dotmatics). For EC50 of >10 μM, the percent inhibition at 10 μM is provided.

Consider `CN(C)CCNc1cc(F)cc(-c2cncc3[nH]c(-c4n[nH]c5ccc(-c6cncc(CNCC7CCCC7)c6)nc45)nc23)c1` [Compound 445, N^1-(3-(2-(5-(5-(((Cyclopentylmethyl)amino)methyl)pyridin-3-yl)-1H-pyrazolo[4,3-b]pyridin-3-yl)-3H-imidazo[4,5-c]pyridin-7-yl)-5-fluorophenyl)-N^2,N^2-dimethylethane-1,2-diamine], for which the EC50 (in general, the concentration needed to bring the measured effect to its halfway point) in experiment [1] was 9.28 µM; in the experiment with SW480 colon cancer cells it was 8.71 µM; in experiment [2], 4.02 µM; with IL-6 in THP-1 cells (500 ng/mL LPS, 22 hours), over 10 µM. Also, the inhibition (usually the change of the read-out against control, counted positive when it falls) at 10 µM in the experiment on IL-6 in THP-1 cells (LPS, at 10 μM, read-out: percent inhibition in brackets (given for EC50 >10 μM)) came to 45.8%.
